From paper PMC6435540, “LipG a bifunctional phospholipase/thioesterase involved in mycobacterial envelope remodeling” (Bioscience Reports, 2018)
Converted amounts (≈) assume the structure as drawn. “Also recorded” adds a separate entry of the source. Like-named read-outs stand apart in the source and are kept apart here.

Tests used:
rLipGMTB = experiment: Inhibition of rLipGMTB, enzyme-inhibitor pre-incubation method, residual activity on pNP-C6; format: biochemical; conditions: for xI50: inhibitor molar excess leading to 50% enzyme inhibition; for xI50 / % inhibition xI = 4 / % inhibition xI = 100: 30-min incubation at 25°C, substrate pNP-C6; for % inhibition xI = 4: inhibitor molar excess xI = 4; for % inhibition xI = 100: inhibitor molar excess xI = 100; for Inhibitory effect on rLipGMTB (in words): pure rLipGMTB, molar excess up to xI = 100
M. smegmatis lipGMS::Hyg = experiment: microbe, parasite or virus in culture; format: cell-based; conditions: for MIC50: Mycolicibacterium smegmatis
[1] = system: M. smegmatis lipGMS::Hyg Comp; experiment: microbe, parasite or virus in culture; format: cell-based; conditions: for Fold change compared with WT: MIC50 of lipGMS::Hyg Comp strain versus WT; for MIC50: Mycolicibacterium smegmatis
[2] = system: extracellular M. tuberculosis; conditions: cited from earlier work; for Activity against extracellular M. tuberculosis (in words): growth in vitro, ref [28],[42]; for Activity against extracellularly growing M. tuberculosis (in words): ref [27],[28]
[3] = system: intramacrophagic M. tuberculosis; parameters: method as in PMID 28924204, PMID 30292819; conditions: infected macrophages; ref [28],[42]; cited from earlier work
M. smegmatis WT = experiment: REMA susceptibility testing, WT strain
Description: Susceptibility testing was performed using the Middlebrook 7H9 broth microdilution method. All assays for each strain were carried out at least in triplicate. MICs against the various M. smegmatis bacterial strains were determined in 96-well flat-bottom Nunclon Delta Surface microplates with lid (Thermo Fisher Scientific) using REMA method [59]. Briefly, log-phase bacteria were diluted to a cell density of 5 × 10^6 cells/ml in 7H9-S medium. […] Growth controls containing no inhibitor (i.e., bacteria only), inhibition controls containing 50 μg/ml kanamycin and sterility controls (i.e. medium only) without inoculation were also included. Plates were incubated at 37°C in a humidity chamber [60] to prevent evaporation for 3–5 days. Then, 20 µl of a 0.02% (w/v) resazurin solution was added to each well, and the plates were incubated at 37°C for color change from blue to pink or violet and for a reading of fluorescence units (FU). Fluorescence corresponding to the resazurin reduction to its metabolite resorufin was quantitated using a Tecan Spark 10M multimode microplate reader (Tecan Group Ltd, France) with excitation at 530 nm and emission at 590 nm. Fluorometric MICs were determined by fitting the RFU% sigmoidal dose–response curves [28, 29] in Kaleidagraph 4.2 software (Synergy Software). MIC values determined as the lowest compound concentrations inhibiting 50% of growth were defined as the MIC50.

[4] = system: M. smegmatis lipGMS::Hyg CompMTB; experiment: microbe, parasite or virus in culture; format: cell-based; conditions: for Fold change compared with WT: MIC50 of lipGMS::Hyg CompMTB strain versus WT; for MIC50: Mycolicibacterium smegmatis
[5] = Mycolicibacterium smegmatis, WT strain, REMA, concentration leading to 50% growth inhibition
[6] = WT strain, REMA, concentration leading to 50% growth inhibition

Row | SMILES | xI50 (rLipGMTB) | % inhibition xI = 4 (rLipGMTB) [%] | % inhibition xI = 100 (rLipGMTB) [%] | Inhibitory effect on rLipGMTB (in words) (rLipGMTB) | Fold change compared with WT (M. smegmatis lipGMS::Hyg; MIC50 of lipGMS::Hyg strain versus WT) [×] | MIC50 (M. smegmatis lipGMS::Hyg) [µg/mL] | Fold change compared with WT [1] | MIC50 [1] [µg/mL] | Activity against extracellular M. tuberculosis (in words) [2] | Activity against extracellularly growing M. tuberculosis (in words) [2] | Activity against intramacrophagic M. tuberculosis (in words) [3] | MIC50 (M. smegmatis WT; [5]) [µg/mL] | Fold change compared with WT [4] | MIC50 [4] [µg/mL] | MIC50 (M. smegmatis WT; [6]) [µg/mL] | MIC50 ([1]; lipGMS::Hyg Comp strain, REMA, concentration leading to 50% growth inhibition, read-out: MIC50) [µg/mL] | MIC50 ([4]; lipGMS::Hyg CompMTB strain, REMA, concentration leading to 50% growth inhibition, read-out: MIC50) [µg/mL] | MIC50 (M. smegmatis WT; Mycolicibacterium smegmatis) [µg/mL]
1 | CCCCCCOc1nn(-c2ccccc2)c(=O)o1 [HPOX] | 2.9 | 58.5 ± 1.4 | 93.8 ± 5.7 | strong inhibitory effect | 2.2 | 18.4 (≈ 70.1 µM) | ~1.5 × | 12.2 (≈ 46.5 µM) | efficiently block M. tuberculosis growth in vitro | only active against extracellularly growing M. tuberculosis strain | no activity | 8.4 (≈ 32 µM) |  |  |  |  |  | 
2 | CCCCCCCCCCC[C@@H](C[C@@H]1OC(=O)[C@H]1CCCCCC)OC(=O)[C@H](CC(C)C)NC=O [Orlistat, reference compound] | 15.2 | 10.8 ± 0.17 | 69.5 ± 5.3 | moderate inhibitory activity |  | 6.5 (≈ 13.1 µM) | ×1.3 | 1.2 (≈ 2.42 µM) |  |  |  | 0.97 (≈ 1.96 µM) | ×1.6 | 1.6 (≈ 3.23 µM) |  |  |  | 
3 | CCCCCCCCCCC1CCP(=O)(OC)OC(C)=C1C(=O)OC (stereo not drawn) [CyC7α] | 5.0 | 47.4 ± 0.81 | 81.4 ± 1.6 | strong dose-dependent inhibition |  |  |  |  |  |  | active on infected macrophages only |  |  |  |  |  |  | 
4 | CCCCCCCCCCC1CCP(=O)(OC)OC(C)=C1C(=O)OC (stereo not drawn) [CyC7β] | 48.1 | 7.9 ± 0.72 | 57.6 ± 2.0 | very weak inhibitory effects |  |  |  |  | strong activity |  | strong activity |  |  |  |  |  |  | 
5 | CCCCCCCCCCCCC1CCP(=O)(OC)OC(C)=C1C(=O)OC (stereo not drawn) [CyC8β] | >200 | 3.2 ± 0.16 | 32.0 ± 1.5 | very weak inhibitory effects |  |  |  |  |  |  | active on infected macrophages only |  |  |  |  |  |  | 
6 | CO[C@H]1/C=C/O[C@@]2(C)Oc3c(C)c(O)c4c(O)c(c(/C=N/N5CCN(C)CC5)c(O)c4c3C2=O)NC(=O)/C(C)=C\C=C\[C@H](C)[C@H](O)[C@@H](C)[C@@H](O)[C@@H](C)[C@H](OC(C)=O)[C@@H]1C [RIF, rifampicin] |  |  |  |  |  | 3.3 (≈ 4.01 µM) | ×1.2 | 0.89 (≈ 1.08 µM) |  |  |  | 1.4 (≈ 1.7 µM) | ×1.3 | 0.96 (≈ 1.17 µM) | 0.76 (≈ 0.924 µM) |  |  | 
7 | CCCCCCOc1nn(-c2ccc(Oc3ccccc3)cc2)c(=O)o1 [HpPPOX] | 3.5 | 61.8 ± 4.7 | 73.8 ± 1.0 |  |  |  |  |  |  |  | active on infected macrophages only |  |  |  |  |  |  | 
8 | NNC(=O)c1ccncc1 [INH, isoniazid] |  |  |  |  |  | 2.9 (≈ 21.1 µM) | ×1.2 | 1.8 (≈ 13.1 µM) |  |  |  | 0.76 (≈ 5.54 µM) | ×1.3 | 1.9 (≈ 13.9 µM) | 1.4 (≈ 10.2 µM) |  |  | 
9 | CC(C)COc1nn(-c2ccc(Oc3ccccc3)cc2)c(=O)o1 [iBpPPOX] | 14.7 | 40.5 ± 3.1 | 60.6 ± 0.22 |  |  |  |  |  | strong activity |  | strong activity |  |  |  |  |  |  | 
10 | CCCCCCCCCCCCCCCCOP1(=O)OCCC(C(=O)OC)=C(C)O1 (stereo not shown) [CyC17] | 0.98 | 66.4 ± 4.5 | 95.4 ± 2.6 | strong dose-dependent inhibition; also recorded: strong inhibitory effect |  | 9.6 (≈ 21.5 µM) |  |  | efficiently block M. tuberculosis growth in vitro | only active against extracellularly growing M. tuberculosis strain | no activity |  | ×1.1 |  |  | 0.6 (≈ 1.34 µM) | 0.65 (≈ 1.46 µM) | 0.56 (≈ 1.25 µM)
11 | COc1nn(-c2cccc(Oc3ccccc3)c2)c(=O)o1 [MmPPOX] | 3.1 | 54.1 ± 1.5 | 82.0 ± 3.8 |  |  |  |  |  |  |  |  |  |  |  |  |  |  | 
